37 substances from patent US20120083522A1, “MODULATION OF INFLAMMATORY RESPONSES BY FACTOR XI” (Isis Pharmaceuitcals, inc., priority 2009, published 2012) can be followed below.

This data set has as its system human Factor XI mRNA. Put plainly: Antisense inhibition in HepG2 cells by microwalk gapmers, 75 nM, lipofectin (Example 3). The format is cell-based. Conditions: for % inhibition of human Factor XI mRNA levels: HepG2 cells, 75 nM. The procedure: These gapmers were designed by creating gapmers shifted slightly upstream and downstream (i.e. “microwalk”) of the original gapmers from Table 3. Gapmers were also created with various motifs, e.g. 5-10-5 MOE, 3-14-3 MOE, and 2-13-5 MOE. These gapmers were tested in vitro. Cultured HepG2 cells at a density of 10,000 cells per well were transfected using lipofectin reagent with 75 nM antisense oligonucleotide. After a treatment period of approximately 24 hours, RNA was isolated from the cells and Factor XI mRNA levels were measured by quantitative real-time PCR. Factor XI mRNA levels were adjusted according to total RNA content, as measured by RIBOGREEN®. Results are presented as percent inhibition of Factor XI, relative to untreated control cells.
The chimeric antisense oligonucleotides in Table 4 were designed as 5-10-5 MOE, 3-14-3 MOE, and 2-13-5 MOE gapmers. The first listed gapmers in Table 4 are the original gapmers (see Table 3) from which the remaining gapmers were designed via microwalk and are designated by an asterisk. The 5-10-5 gapmers are 20 nucleotides in length, wherein the central gap segment is comprised of 10 2′-deoxynucleotides and is flanked on both sides (in the 5′ and 3′ directions) by wings comprising 5 nucleotides each. The 3-14-3 gapmers are 20 nucleotides in length, wherein the central gap segment is comprised of 14 2′-deoxynucleotides and is flanked on both sides (in the 5′ and 3′ directions) by wings comprising 3 nucleotides each. The 2-13-5 gapmers are 20 nucleotides in length, wherein the central gap segment is comprised of 13 2′-deoxynucleotides. The central gap is flanked on the 5′ end with a wing comprising 2 nucleotides and on the 3′ end with a wing comprising 5 nucleotides. For each of the motifs (5-10-5, 3-14-3, and 2-13-5), each nucleotide in the 5′ wing segment and each nucleotide in the 3′ wing segment has a 2′-MOE modification. The internucleoside linkages throughout each gapmer are phosphorothioate (P═S) linkages. All cytidine residues throughout each gapmer are 5-methylcytidines. “Target start site” indicates the 5′-most nucleotide to which the gapmer is targeted. “Target stop site” indicates the 3′-most nucleotide to which the gapmer is targeted. Each gapmer listed in Table 4 is targeted to SEQ ID NO: 1 (GENBANK Accession No. NM_000128.3).

The mark [1] stands for this setting: oligonucleotides targeted to nucleobases 1062 to 1091 of SEQ ID NO: 1.
[2] abbreviates: oligonucleotides targeted to nucleobases 738 to 762 of SEQ ID NO: 1.
Where [3] appears, read: oligonucleotides targeted to nucleobases 1018 to 1042 of SEQ ID NO: 1.
Setting [4] is: oligonucleotides targeted to nucleobases 1275 to 1318 of SEQ ID NO: 1.

In the oligonucleotide strings, read from the 5' end, every base follows the letter of its sugar. An asterisk marks phosphorothioate; unmarked linkages are phosphodiester. Other units and linkages are bracketed, terminal groups are in braces. A string of capitals states the bases alone. e = 2'-O-(2-methoxyethyl) (MOE); [5mC] = 5-methylcytosine; d = 2'-deoxy (DNA)

For the substance “416839 (antisense eG*eA*eT*eT*e[5mC]*dT*dT*dT*dG*dG*dG*d[5mC]*d[5mC]*dA*dT*eT*e[5mC]*e[5mC]*eT*eG) [compound 416839]”, under setting [1], the “% inhibition of human Factor XI mRNA levels” value is reported as 89%.

In the case of “416840 (antisense eA*eG*eA*eT*eT*d[5mC]*dT*dT*dT*dG*dG*dG*d[5mC]*d[5mC]*dA*eT*eT*e[5mC]*e[5mC]*eT) [compound 416840]”, under setting [1], the “% inhibition of human Factor XI mRNA levels” value turned out to be 85%. Consider “416841 (antisense eG*eA*eG*eA*eT*dT*d[5mC]*dT*dT*dT*dG*dG*dG*d[5mC]*d[5mC]*eA*eT*eT*e[5mC]*e[5mC]) [compound 416841]”, for which the “% inhibition of human Factor XI mRNA levels” value under setting [1] came to 87%. As to “416843 (antisense eT*eT*eT*eG*eA*dG*dA*dT*dT*d[5mC]*dT*dT*dT*dG*dG*eG*e[5mC]*e[5mC]*eA*eT) [compound 416843]”, under setting [1], the “% inhibition of human Factor XI mRNA levels” value is given as 89%.

As to “416844 (antisense e[5mC]*eT*eT*eT*eG*dA*dG*dA*dT*dT*d[5mC]*dT*dT*dT*dG*eG*eG*e[5mC]*e[5mC]*eA) [compound 416844]”, the “% inhibition of human Factor XI mRNA levels” value under setting [1] is 90%. On the same count and under the same terms, for “416845 (antisense eT*e[5mC]*eT*eT*eT*dG*dA*dG*dA*dT*dT*d[5mC]*dT*dT*dT*eG*eG*eG*e[5mC]*e[5mC]) [compound 416845]” the value was 86%; for “416846 (antisense eT*eT*e[5mC]*eT*eT*dT*dG*dA*dG*dA*dT*dT*d[5mC]*dT*dT*eT*eG*eG*eG*e[5mC]) [compound 416846]”, 72%. For the substance “416847 (antisense eT*eT*eT*e[5mC]*eT*dT*dT*dG*dA*dG*dA*dT*dT*d[5mC]*dT*eT*eT*eG*eG*eG) [compound 416847]”, the “% inhibition of human Factor XI mRNA levels” value under setting [1] came to 50%. Take “416894 (antisense eA*eT*eG*d[5mC]*d[5mC]*d[5mC]*dT*dT*d[5mC]*dA*dT*dG*dT*d[5mC]*dT*dA*dG*eG*eT*e[5mC]) [compound 416894]”: the % inhibition – broadly, the percentage by which the read-out fell short of the control – (HepG2, 75 nM, approximately 24 hours, nucleobases 656 to 704 of SEQ ID NO: 1) is 84%. “416898 (antisense e[5mC]*e[5mC]*eG*dT*dG*d[5mC]*dA*dT*d[5mC]*dT*dT*dT*d[5mC]*dT*dT*dG*dG*e[5mC]*eA*eT) [compound 416898]”: under setting [2], the “% inhibition of human Factor XI mRNA levels” value is recorded as 88%. With “416899 (antisense eT*e[5mC]*e[5mC]*dG*dT*dG*d[5mC]*dA*dT*d[5mC]*dT*dT*dT*d[5mC]*dT*dT*dG*eG*e[5mC]*eA) [compound 416899]”, the “% inhibition of human Factor XI mRNA levels” value under setting [2] is reported as 86%.

For “416900 (antisense eA*eT*e[5mC]*d[5mC]*dG*dT*dG*d[5mC]*dA*dT*d[5mC]*dT*dT*dT*d[5mC]*dT*dT*eG*eG*e[5mC]) [compound 416900]”, the “% inhibition of human Factor XI mRNA levels” value under setting [2] was 90%.

In the case of “416901 (antisense e[5mC]*eA*eT*d[5mC]*d[5mC]*dG*dT*dG*d[5mC]*dA*dT*d[5mC]*dT*dT*dT*d[5mC]*dT*eT*eG*eG) [compound 416901]”, the “% inhibition of human Factor XI mRNA levels” value under setting [2] is reported as 65%. Consider “416902 (antisense eT*e[5mC]*eA*dT*d[5mC]*d[5mC]*dG*dT*dG*d[5mC]*dA*dT*d[5mC]*dT*dT*dT*d[5mC]*eT*eT*eG) [compound 416902]”, for which the “% inhibition of human Factor XI mRNA levels” value under setting [2] was 46%. Take “416903 (antisense eG*eT*e[5mC]*dA*dT*d[5mC]*d[5mC]*dG*dT*dG*d[5mC]*dA*dT*d[5mC]*dT*dT*dT*e[5mC]*eT*eT) [compound 416903]”: under setting [2], the “% inhibition of human Factor XI mRNA levels” value is 88%. As to “416904 (antisense e[5mC]*e[5mC]*eG*dG*dG*dA*dT*dG*dA*dT*dG*dA*dG*dT*dG*d[5mC]*dA*eG*eA*eT) [compound 416904]”, the “% inhibition of human Factor XI mRNA levels” value under setting [3] was determined as 90%. The same measure, in the same setting: for “416905 (antisense eA*e[5mC]*e[5mC]*dG*dG*dG*dA*dT*dG*dA*dT*dG*dA*dG*dT*dG*d[5mC]*eA*eG*eA) [compound 416905]” the value was 85%; for “416906 (antisense eA*eA*e[5mC]*d[5mC]*dG*dG*dG*dA*dT*dG*dA*dT*dG*dA*dG*dT*dG*e[5mC]*eA*eG) [compound 416906]”, 88%; for “416907 (antisense e[5mC]*eA*eA*d[5mC]*d[5mC]*dG*dG*dG*dA*dT*dG*dA*dT*dG*dA*dG*dT*eG*e[5mC]*eA) [compound 416907]”, 90%.

Regarding “416909 (antisense eA*eT*eT*d[5mC]*dT*dT*dT*dG*dG*dG*d[5mC]*d[5mC]*dA*dT*dT*d[5mC]*d[5mC]*eT*eG*eG) [compound 416909]”, the “% inhibition of human Factor XI mRNA levels” value under setting [1] is given as 78%. As to “416910 (antisense eG*eA*eT*dT*d[5mC]*dT*dT*dT*dG*dG*dG*d[5mC]*d[5mC]*dA*dT*dT*d[5mC]*e[5mC]*eT*eG) [compound 416910]”, under setting [1], the “% inhibition of human Factor XI mRNA levels” value worked out at 90%. Same read-out and setting: for “416911 (antisense eA*eG*eA*dT*dT*d[5mC]*dT*dT*dT*dG*dG*dG*d[5mC]*d[5mC]*dA*dT*dT*e[5mC]*e[5mC]*eT) [compound 416911]” the value was 90%; for “416912 (antisense eG*eA*eG*dA*dT*dT*d[5mC]*dT*dT*dT*dG*dG*dG*d[5mC]*d[5mC]*dA*dT*eT*e[5mC]*e[5mC]) [compound 416912]”, 92%; for “416913 (antisense eT*eG*eA*dG*dA*dT*dT*d[5mC]*dT*dT*dT*dG*dG*dG*d[5mC]*d[5mC]*dA*eT*eT*e[5mC]) [compound 416913]”, 93%. Consider “416914 (antisense eT*eT*eG*dA*dG*dA*dT*dT*d[5mC]*dT*dT*dT*dG*dG*dG*d[5mC]*d[5mC]*eA*eT*eT) [compound 416914]”, for which, under setting [1], the “% inhibition of human Factor XI mRNA levels” value stood at 87%. As for “416915 (antisense eT*eT*eT*dG*dA*dG*dA*dT*dT*d[5mC]*dT*dT*dT*dG*dG*dG*d[5mC]*e[5mC]*eA*eT) [compound 416915]”, the “% inhibition of human Factor XI mRNA levels” value under setting [1] is on record as 79%. As to “416916 (antisense e[5mC]*eT*eT*dT*dG*dA*dG*dA*dT*dT*d[5mC]*dT*dT*dT*dG*dG*dG*e[5mC]*e[5mC]*eA) [compound 416916]”, the “% inhibition of human Factor XI mRNA levels” value under setting [1] was determined as 91%.

Regarding “416917 (antisense eT*e[5mC]*eT*dT*dT*dG*dA*dG*dA*dT*dT*d[5mC]*dT*dT*dT*dG*dG*eG*e[5mC]*e[5mC]) [compound 416917]”, under setting [1], the “% inhibition of human Factor XI mRNA levels” value was 92%. The same measure, in the same setting: for “416918 (antisense eT*eT*e[5mC]*dT*dT*dT*dG*dA*dG*dA*dT*dT*d[5mC]*dT*dT*dT*dG*eG*eG*e[5mC]) [compound 416918]” the value was 63%. Consider “416919 (antisense eT*eT*eT*d[5mC]*dT*dT*dT*dG*dA*dG*dA*dT*dT*d[5mC]*dT*dT*dT*eG*eG*eG) [compound 416919]”, for which the “% inhibition of human Factor XI mRNA levels” value under setting [1] amounted to 27%. In the case of “416920 (antisense eA*e[5mC]*eA*dG*dT*dT*dT*d[5mC]*dT*dG*dG*d[5mC]*dA*dG*dG*d[5mC]*d[5mC]*eT*e[5mC]*eG) [compound 416920]”, the “% inhibition of human Factor XI mRNA levels” value under setting [4] came to 88%. For the substance “416921 (antisense e[5mC]*eA*e[5mC]*dA*dG*dT*dT*dT*d[5mC]*dT*dG*dG*d[5mC]*dA*dG*dG*d[5mC]*e[5mC]*eT*e[5mC]) [compound 416921]”, the “% inhibition of human Factor XI mRNA levels” value under setting [4] is on record as 88%. Regarding “416927 (antisense eT*eT*eG*dG*dT*dG*d[5mC]*dA*d[5mC]*dA*dG*dT*dT*dT*d[5mC]*dT*dG*eG*e[5mC]*eA) [compound 416927]”, the “% inhibition of human Factor XI mRNA levels” value under setting [4] was 87%. Take “416928 (antisense eA*eT*eT*dG*dG*dT*dG*d[5mC]*dA*d[5mC]*dA*dG*dT*dT*dT*d[5mC]*dT*eG*eG*e[5mC]) [compound 416928]”: the “% inhibition of human Factor XI mRNA levels” value under setting [4] is 91%. Turning to “416929 (antisense e[5mC]*eA*eT*dT*dG*dG*dT*dG*d[5mC]*dA*d[5mC]*dA*dG*dT*dT*dT*d[5mC]*eT*eG*eG) [compound 416929]”, the “% inhibition of human Factor XI mRNA levels” value under setting [4] came out at 83%. On to “416930 (antisense eG*e[5mC]*eA*dT*dT*dG*dG*dT*dG*d[5mC]*dA*d[5mC]*dA*dG*dT*dT*dT*e[5mC]*eT*eG) [compound 416930]”, for which, under setting [4], the “% inhibition of human Factor XI mRNA levels” value came out at 87%. For the substance “416932 (antisense e[5mC]*eG*eG*d[5mC]*dA*dT*dT*dG*dG*dT*dG*d[5mC]*dA*d[5mC]*dA*dG*dT*eT*eT*e[5mC]) [compound 416932]”, the “% inhibition of human Factor XI mRNA levels” value under setting [4] came out at 92%.
